We go through 17 compounds from PMC5700161, “Structure of human immunoproteasome with a reversible and noncompetitive inhibitor that selectively inhibits activated lymphocytes” (Nature Communications, 2017).

The target of one experiment is β1c (Homo sapiens, UniProt P28072). Put plainly: IC50 against β1c of human constitutive proteasome (Z-LLE-AMC).
A further experiment addresses β2c (Homo sapiens, UniProt Q99436). Description: IC50 against β2c of human constitutive proteasome (Z-VLR-AMC).
Another experiment has as its target β2i (Homo sapiens, UniProt P40306). Put plainly: IC50 against β2i of human immunoproteasome (Z-VLR-AMC).
The target of another experiment is β1i (Homo sapiens, UniProt P28065). Description: IC50 against β1i of human immunoproteasome (Ac-PAL-AMC).
A further experiment has as its target human β5i (Homo sapiens, UniProt P20618+P28062). Description: IC50 determination against human β5i of i-20S. The settings on record: for reduction in potency against β5i: in comparing to PKS21221.
Another experiment deals with human β5c (Homo sapiens, UniProt P20618+P28074). Put plainly: IC50 determination against human β5c of c-20S.
Experiment [1] has as its target T1, β5c (c-20S) (Homo sapiens, UniProt P20618+P28074). Put plainly: Reversibility: dialysis of pre-incubated c-20S and inhibitor. The experiment is classed as biochemical. The settings on record: dialysis of pre-incubated mixture of c-20S and inhibitor. The source says: (§1) With increasing concentrations of PKS21004, both V max and K M decreased (Fig. 1d–g and Supplementary Fig. 1). […] This class thus joins a growing list of noncompetitive proteasome inhibitors[5],[30].

In experiment [2] the target is T1, β5c (c-20S). Put plainly: Kinetics studies of modality of inhibition against β5c. The experiment is classed as biochemical.
From the text: Data as in d are shown in double reciprocal plots in e, and data from f in g. […] Data are means ± SEM of three independent experiments
as §1

Another experiment concerns the target T2, β5i (i-20S) (Homo sapiens, UniProt P20618+P28062).
T2 construct: purchased Boston Biochem
Put plainly: Kinetics studies of modality of inhibition against β5i. The experiment is classed as biochemical. As for the experimental part:
Data as in d are shown in double reciprocal plots in e, and data from f in g. […] Data are means ± SEM of three independent experiments […]
as §1
Supplementary Figure 11. Inhibition kinetics of PKS21221 against i-20S β5i. (A) Steady state velocities of the Ac-ANW-AMC hydrolysis at 10, 15, 25, 35 µM by i-20S β5i (0.4 nM) in the presence of PKS21221 at indicated concentrations were determined at 37 °C and plotted by RFU versus substrate concentration (A); values of KM, Ki and α were estimated by PRISM using equation V = (Vmax / (1 + I / (α*Ki))) * S / (KM * (1+ I / Ki) / (1 + I / (α*Ki)) + S); (B) Lineweaver-Burk plot of the data in (A). (C) Plot of KM versus concentrations of PKS21221 indicates a mixed type inhibition. (D) Plot of Vmax versus concentrations of PKS21221.
(1 picture or pasted object on this page, not shown here)

The mark [3] stands for this setting: read-out: IC50 1c - LLE (β1c), substrate Z-LLE-AMC.
Where [4] appears, read: read-out: IC50 2c - VLR (β2c), substrate Z-VLR-AMC.
The mark [5] stands for this setting: read-out: IC50 2i - VLR (β2i), substrate Z-VLR-AMC.
Setting [6] is: read-out: IC50 1i - PAL (β1i), substrate Ac-PAL-AMC.
[7] abbreviates: fit to equation for noncompetitive inhibitors.
[8] abbreviates: read-out: IC50 against human β5i.

“Also recorded” adds a separate entry of the source. Where two headings read alike, the source gives them in different places.

Method for human β5c: (§2) IC50s of all compounds against β5i and β5c (Table 2) and against β1i, β2i, β1c, and β2c (Supplementary Table 1) were determined following reported methods[8].
Method for human β5i: as §2
Method for β1c: as §2
Method for β1i: as §2
Method for β2c: as §2
Method for β2i: as §2

Take `CC(C)(C)NC(=O)C[C@H](NC(=O)CCc1ccccc1)C(=O)NCCNC(=O)c1cccc(-c2ccc(C#N)cc2)c1` [PKS21028]: the IC50 on β1c (setting [3]), at β2c (setting [4]), at β2i (setting [5]) and on β1i (setting [6]) was more than 50 µM in each case.

As for `CC(C)(C)NC(=O)C[C@H](NC(=O)CCc1ccccc1)C(=O)NCCNC(=O)c1ccc2ccccc2c1` [PKS21025], the IC50 on β1c (setting [3]), on β2c (setting [4]), at β2i (setting [5]) and on β1i (setting [6]) was more than 50 µM each time. Moreover, the “selectivity for β5i over β5c” value on human β5i turned out to be 26 fold. Also, at human β5i (relative to PKS3080), the “improvement of potency against β5i” value came to 3 fold.

Consider `CC(C)(C)NC(=O)C[C@H](NC(=O)CCc1ccccc1)C(=O)NCCNC(=O)c1cccc(-c2ccccc2)c1` [PKS21004], for which the “Hill coefficient constant, inhibition of β5c” value at human β5c was ~ 1. In addition, the IC50 against human β5c was 0.326 µM; against β1c it was more than 50 µM; at human β5i, 0.058 µM; against β2c, more than 50 µM; against β2i, more than 50 µM; on β1i, more than 50 µM. Also, at human β5i, the “Hill coefficient constant, inhibition of β5i” value is ~ 1. On β5c (c-20S) [1], the “reversibility of β5c inhibition; β5c activity after dialysis” value is recorded as “reversibly inhibits; also recorded: fully restored”. Also, the “α for β5c (αc-20S)” value at β5c (c-20S) [2] was 0.65 and ≈ 0.65. In addition, the values for the Ki at β5c (c-20S) [2] (setting [7]) and at β5i (i-20S) (setting [7]) were 0.55 µM and 0.077 µM, respectively. Further, at β5c (c-20S) [2] (versus substrate), the “modality of inhibition of β5c” value was “noncompetitively”. For the same compound, the “α for β5i (αi-20S)” value on β5i (i-20S) is “≈ 0.28”. For the same compound, the α for β5i on β5i (i-20S) (as printed in legend of Fig. 1) turned out to be 0.28. Further, the “modality of inhibition of β5i” value on β5i (i-20S) (versus substrate) is “noncompetitively”.

In the case of `Cc1ccc(S(=O)(=O)N[C@@H](C)C(=O)NCCNC(=O)c2cc(-c3ccccc3F)ccc2F)cc1` [PKS21290], on human β5c, the “inhibitory activity against β5c (in words)” value was “eliminated inhibitory activity”. Further, the IC50 at β1c (setting [3]), on β2c (setting [4]), at β2i (setting [5]) and on β1i (setting [6]) was more than 50 µM throughout. Besides, the “inhibitory activity against β5i (in words)” value against human β5i is “eliminated inhibitory activity”.

Take `CC(C)(C)NC(=O)C[C@H](NC(=O)CCc1ccccc1)C(=O)NCCNC(=O)c1ccc(-c2ccccc2)cc1` [PKS21003]: the half-maximal inhibitory concentration (IC50) at human β5c is more than 100 µM; at β1c, more than 50 µM; against human β5i it was more than 100 µM; at β2c, more than 50 µM; at β2i, more than 50 µM; against β1i, more than 50 µM. Moreover, on human β5c, the “inhibitory activity against β5c (in words)” value was “inactive”. For the same compound, the “inhibitory activity against β5i (in words)” value against human β5i was “inactive”.

In the case of `CC(C)(C)NC(=O)C[C@H](NS(=O)(=O)C1CC1)C(=O)NCCNC(=O)c1cc(-c2ccccc2F)ccc1F` [PKS21293], the half-maximal inhibitory concentration (IC50) on β1c (setting [3]), at β2c (setting [4]), on β2i (setting [5]) and at β1i (setting [6]) was more than 50 µM in each case. For the same compound, the “selectivity for β5i over β5c” value at human β5i turned out to be 64 fold. Also, the “reduction in potency against β5i” value at human β5i worked out at 3.7 fold.

Turning to `CC(=O)N[C@@H](CC(=O)NC(C)(C)C)C(=O)NCCNC(=O)c1cc(-c2ccccc2F)ccc1F` [PKS21294], the “reduction in potency against β5c” value at human β5c (in comparing to PKS21221) is reported as 120 fold. In addition, the half-inhibitory concentration (IC50) on β1c (setting [3]), at β2c (setting [4]), at β2i (setting [5]) and at β1i (setting [6]) was more than 50 µM each time. In addition, the “reduction in potency against β5i” value at human β5i worked out at 150 fold.

As to `CC(C)(C)NC(=O)C[C@H](NC(=O)OC(C)(C)C)C(=O)NCCNC(=O)c1cc(-c2ccccc2F)ccc1F` [PKS21277], the IC50 at β1c (setting [3]), on β2c (setting [4]), on β2i (setting [5]) and on β1i (setting [6]) was more than 50 µM each time. In addition, the “inhibitory activity against β5i (in words)” value against human β5i was “modestly potent”. Also, at human β5i, the “selectivity for β5i over β5c” value amounted to 36 fold.

In the case of `CC(C)(C)NC(=O)C[C@H](NC(=O)CCc1ccccc1)C(=O)NCCNC(=O)c1cccc2ccccc12` [PKS3080], the IC50 at human β5c (read-out: IC50 against human β5c) was 1.22 µM; at β1c (setting [3]), more than 50 µM; at human β5i (setting [8]), 0.37 µM; on β2c (setting [4]), more than 50 µM; at β2i (setting [5]) it was more than 50 µM; on β1i (setting [6]) it was more than 50 µM.

In the case of `CC(C)(C)NC(=O)C[C@H](NC(=O)CCc1ccccc1)C(=O)NCCNC(=O)c1cc(-c2ccccc2)ccc1F` [PKS21196], the 50% inhibitory concentration (IC50) on β1c (setting [3]), on β2c (setting [4]), at β2i (setting [5]) and on β1i (setting [6]) was more than 50 µM in each case.

As to `CC(C)(C)OC(=O)N[C@@H](CC(N)=O)C(=O)NCCNC(=O)c1cc(-c2ccccc2F)ccc1F` [PKS21281], the “inhibitory activity against β5c (in words)” value on human β5c is listed as “abolished the inhibitory activities”. Also, the IC50 at β1c (setting [3]), at β2c (setting [4]), on β2i (setting [5]) and on β1i (setting [6]) was more than 50 µM throughout. The “inhibitory activity against β5i (in words)” value at human β5i is given as “abolished the inhibitory activities”.

On to `CC(C)(C)NC(=O)C[C@H](NC(=O)CCc1ccccc1)C(=O)NCCNC(=O)c1cc(-c2cccc(F)c2)ccc1F` [PKS21195], for which the IC50 on β1c (setting [3]), on β2c (setting [4]), on β2i (setting [5]) and on β1i (setting [6]) was more than 50 µM throughout.

As for `CC(C)(C)NC(=O)C[C@H](NC(=O)CCc1ccccc1)C(=O)NCCNC(=O)c1cc(-c2ccccc2F)ccc1F` [PKS21187], the IC50 was more than 50 µM at β1c (setting [3]); 0.015 µM on human β5i (setting [8]); more than 50 µM at β2c (setting [4]); more than 50 µM at β2i (setting [5]); more than 50 µM on β1i (setting [6]). Moreover, the “selectivity for β5i over β5c” value on human β5i was ~ 20 fold.

`CC(CNC(=O)c1cccc(-c2ccccc2)c1)NC(=O)[C@H](CC(=O)NC(C)(C)C)NC(=O)CCc1ccccc1` (some centres unmarked) [PKS21018]: the IC50 at β1c (setting [3]), on β2c (setting [4]), at β2i (setting [5]) and on β1i (setting [6]) was more than 50 µM throughout.

As for `Cc1ccc(S(=O)(=O)NCC(=O)NCCNC(=O)c2cc(-c3ccccc3F)ccc2F)cc1` [PKS21289], the “inhibitory activity against β5c (in words)” value at human β5c is on record as “eliminated inhibitory activity”. In addition, the IC50 at β1c (setting [3]), at β2c (setting [4]), at β2i (setting [5]) and at β1i (setting [6]) was more than 50 µM throughout. Moreover, the “inhibitory activity against β5i (in words)” value against human β5i was “eliminated inhibitory activity”.

Turning to `CC(C)(C)NC(=O)C[C@H](NC(=O)CCc1ccccc1)C(=O)NCCNC(=O)c1cccc(-c2ccc(F)cc2)c1` [PKS21026], the IC50 on β1c (setting [3]), on β2c (setting [4]), at β2i (setting [5]) and at β1i (setting [6]) was more than 50 µM throughout.

`Cc1ccc(S(=O)(=O)N[C@@H](CC(N)=O)C(=O)NCCNC(=O)c2cc(-c3ccccc3F)ccc2F)cc1` [PKS21288]: at human β5c, the “inhibitory activity against β5c (in words)” value is listed as “eliminated inhibitory activity”. The IC50 on β1c (setting [3]), at β2c (setting [4]), at β2i (setting [5]) and at β1i (setting [6]) was more than 50 µM each time. In addition, the “inhibitory activity against β5i (in words)” value on human β5i is “eliminated inhibitory activity”.

A word on the IC50: it is the concentration needed to halve the response being measured. What is called Ki is a dissociation constant, usually derived from enzyme kinetics or from competition with a known ligand. A lower Ki goes with tighter binding.
